Patent US20020032330A1, “Propionic acid derivatives” (priority 1996, published 2002)

Assays:
[1] = system: KKA^y mouse; assay: Hypoglycemic and hypolipidemic effect in KKA^y mouse (oral, once a day for three days); type: in vivo; conditions: KKA^y mice, blood 18 hours after final administration
Method: The hypoglycemic effect and hypolipidemic effect were examined using KKA^y mouse which was known as insulin-independent diabetic animal. A group of KKA^y mice (9 to 11 week age) were divided into several groups based on plasma glucose concentration. Each group included mice having an equal plasma glucose concentration. To the mouse was orally administered a compound of the invention in the form of suspension in a 1% methylcellulose solution. The administration was performed once a day and for a period of three days. To the control (mouse having been administered no hypoglycemic agent) was orally administered a 1% methylcellulose solution in the same manner.
After 18 hours from the final administration, blood was collected, and the plasma glucose concentration and the triglyceride concentration were measured. The measurements were performed using commercially available measuring kits (Glucose CII-TestWako and Triglyceride G-TestWako, respectively, both available from Wako Chemicals Co., Ltd.).
The plasma glucose concentration and the triglyceride concentration were examined for each of the divided mouse groups, and their ratio (%) per the corresponding values obtained in the control was calculated.
The same tests were also performed using the comparison compounds, that is, troglitazone and pioglitazone hydrochloride, which were known as pharmaceuticals for treating diabetes.

Compound | Plasma glucose concentration (% per control) ([1]; dosage 100 mg/kg) | Triglyceride concentration (% per control) ([1]; dosage 100 mg/kg) | Plasma glucose concentration (% per control) ([1]; dosage 30 mg/kg) | Triglyceride concentration (% per control) ([1]; dosage 30 mg/kg) | also measured
O=C(O)C(Cc1cnc2ccc(OCc3ccc(C(F)(F)F)cc3)cc2c1)Sc1ccccc1 (centres unmarked) [Compound 1, 3-[6-[(4-trifluoromethyl)benzyloxy]-3-quinolyl]-2-(phenylthio) propionic acid] | 68 | 60 |  |  | 
COCCOC(Cc1cc2cc(OCc3ccc(C(F)(F)F)cc3)ccc2[nH]1)C(=O)O (centres unmarked) [Compound 2, 2-(2-methoxyethoxy)-3-[5-[(4-trifluoro-methyl)benzyloxy]-2-indolyl]propionic acid] |  |  | 53 | 17 | 
CCOC(Cc1cnc2ccc(OCc3ccc(Cl)cc3)cc2c1)C(=O)O (centres unmarked) [Compound 3, 3-[6-(4-chlorobenzyloxy)-3-quinolyl]-2-ethoxypropionic acid] |  |  | 63 | 66 | 
CCOC(Cc1cnc2cc(OCc3ccc(Cl)cc3)ccc2c1)C(=O)O (centres unmarked) [Compound 4, 3-[7-(4-chlorobenzyloxy)-3-quinolyl]-2-ethoxypropionic acid] |  |  | 58 | 61 | 
O=C(O)C(Cc1cnc2cc(OCc3ccc(Cl)cc3)ccc2c1)Oc1ccccc1 (centres unmarked) [Compound 5, 3-[7-(4-chlorobenzyloxy)-3-quinolyl]-2-phenoxypropionic acid] |  |  | 77 | 81 | 
Cc1oc(-c2ccccc2)nc1CCc1noc2cc(CC(Sc3ccccc3)C(=O)O)ccc12 (centres unmarked) [Compound 6, 2-phenylthio-3-[3-[2-(2-phenyl-5-methyl-4-oxazolyl)ethyl]-1,2-benzisoxazol-6-yl]-propionic acid] | 46 | 31 |  |  | 
CCOC(Cc1ccc2c(CCc3nc(-c4ccccc4)oc3C)noc2c1)C(=O)O (centres unmarked) [Compound 7, 2-ethoxy-3-[3-[2-(2-phenyl-5-methyl-4-oxazolyl)ethyl]-1,2-benzisoxazol-6-yl]-propionic acid] |  |  |  |  | Plasma glucose concentration (% per control) ([1]; dosage 1 mg/kg): 76 % per control; Triglyceride concentration (% per control) ([1]; dosage 1 mg/kg): 87 % per control; Plasma glucose concentration (% per control) ([1]; dosage 3 mg/kg): 61 % per control; Triglyceride concentration (% per control) ([1]; dosage 3 mg/kg): 65 % per control; Plasma glucose concentration (% per control) ([1]; dosage 10 mg/kg): 60 % per control; Triglyceride concentration (% per control) ([1]; dosage 10 mg/kg): 45 % per control
CCCSC(Cc1cnc2cc(OCc3ccc(Cl)cc3)ccc2c1)C(=O)O (centres unmarked) [Example 2, 3-[7-(4-Chlorobenzyloxy)-3-quinolyl]-2-(propylthio) propionic acid] |  |  |  |  | melting point: 50 to 60 °C
COCCOC(Cc1cnc2cc(OCc3ccc(Cl)cc3)ccc2c1)C(=O)O (centres unmarked) [Example 6, 3-[7-(4-Chlorobenzyloxy)-3-quinolyl]-2-(2-methoxyethoxy) propionic acid] |  |  |  |  | melting point: 110 to 113 °C
COCCOC(Cc1cnc2ccc(OCc3ccc([N+](=O)[O-])cc3)cc2c1)C(=O)O (centres unmarked) [Example 7, 2-(2-Methoxyethoxy)-3-[6-(4-nitrobenzyloxy)-3-quinolyl]propionic acid] |  |  |  |  | melting point: 146 to 148 °C
CCc1ccc(CCOc2ccc(CC3SC(=O)NC3=O)cc2)nc1.Cl (centres unmarked) [Pioglitazone hydrochloride, reference compound] | 65 | 69 | 68 | 84 | 
Cc1c(C)c2c(c(C)c1O)CCC(C)(COc1ccc(CC3SC(=O)NC3=O)cc1)O2 (centres unmarked) [Troglitazone, reference compound] | 68 | 101 | 84 | 99 | 
